In ChEMBL document CHEMBL5104188, “Discovery and Characterization of Synthesized and FDA-Approved Inhibitors of Clostridial and Bacillary Collagenases” (J Med Chem, 2022):
Converted amounts (≈) assume the structure as drawn. The source made the active and inactive calls. The calls are words filed in the database; no cut-off is given here.

What was measured:
Collagenase ColH [1] = target: T1, Collagenase ColH (Hathewaya histolytica, UniProt Q46085); assay: Inhibition of Clostridium histolyticum CoLH assessed as inhibition constant using M MOCAcPro-Leu-Gly-Leu-A2pr-(DNP)Ala-Arg-NH2 as substrate incubated for 10 mins by fluorescence spectrophotometer analysis
T1 sequence (Q46085 whole entry): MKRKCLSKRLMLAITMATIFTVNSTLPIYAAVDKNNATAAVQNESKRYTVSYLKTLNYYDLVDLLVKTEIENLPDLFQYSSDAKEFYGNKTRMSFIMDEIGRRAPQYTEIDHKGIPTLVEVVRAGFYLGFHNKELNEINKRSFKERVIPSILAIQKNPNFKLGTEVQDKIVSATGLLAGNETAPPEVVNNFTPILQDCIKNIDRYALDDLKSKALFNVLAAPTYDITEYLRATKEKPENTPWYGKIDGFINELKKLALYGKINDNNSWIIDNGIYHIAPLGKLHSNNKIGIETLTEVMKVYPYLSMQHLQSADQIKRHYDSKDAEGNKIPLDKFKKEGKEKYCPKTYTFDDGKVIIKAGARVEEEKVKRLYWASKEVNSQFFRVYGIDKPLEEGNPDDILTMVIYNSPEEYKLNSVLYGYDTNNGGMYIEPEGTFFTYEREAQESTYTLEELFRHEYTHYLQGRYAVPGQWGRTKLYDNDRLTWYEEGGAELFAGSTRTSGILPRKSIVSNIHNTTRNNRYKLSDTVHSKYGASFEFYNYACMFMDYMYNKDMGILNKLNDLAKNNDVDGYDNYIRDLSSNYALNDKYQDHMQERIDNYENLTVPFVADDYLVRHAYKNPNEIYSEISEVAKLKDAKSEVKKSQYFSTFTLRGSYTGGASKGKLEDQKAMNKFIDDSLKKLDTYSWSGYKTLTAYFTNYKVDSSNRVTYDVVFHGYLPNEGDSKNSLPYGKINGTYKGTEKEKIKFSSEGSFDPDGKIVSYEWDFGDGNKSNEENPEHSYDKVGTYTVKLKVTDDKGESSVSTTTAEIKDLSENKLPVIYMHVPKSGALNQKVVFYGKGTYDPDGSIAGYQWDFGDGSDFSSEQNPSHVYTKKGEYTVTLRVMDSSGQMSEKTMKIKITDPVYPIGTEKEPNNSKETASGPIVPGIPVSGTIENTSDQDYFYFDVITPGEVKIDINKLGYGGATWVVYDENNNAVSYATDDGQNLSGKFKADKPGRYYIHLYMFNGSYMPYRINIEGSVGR

[2] = target: Collagenase ColA (Bacillus cereus) (UniProt Q81BJ6); assay: Reversible inhibition of Bacillus cereus collagenase unit ColA at 4.375 uM using quenched fluorescent FSI-1 as substrate incubated for 2 min by rapid dilution assay
Sequence of Collagenase ColA (Bacillus cereus) (Q81BJ6 whole entry, the tested form may be a part): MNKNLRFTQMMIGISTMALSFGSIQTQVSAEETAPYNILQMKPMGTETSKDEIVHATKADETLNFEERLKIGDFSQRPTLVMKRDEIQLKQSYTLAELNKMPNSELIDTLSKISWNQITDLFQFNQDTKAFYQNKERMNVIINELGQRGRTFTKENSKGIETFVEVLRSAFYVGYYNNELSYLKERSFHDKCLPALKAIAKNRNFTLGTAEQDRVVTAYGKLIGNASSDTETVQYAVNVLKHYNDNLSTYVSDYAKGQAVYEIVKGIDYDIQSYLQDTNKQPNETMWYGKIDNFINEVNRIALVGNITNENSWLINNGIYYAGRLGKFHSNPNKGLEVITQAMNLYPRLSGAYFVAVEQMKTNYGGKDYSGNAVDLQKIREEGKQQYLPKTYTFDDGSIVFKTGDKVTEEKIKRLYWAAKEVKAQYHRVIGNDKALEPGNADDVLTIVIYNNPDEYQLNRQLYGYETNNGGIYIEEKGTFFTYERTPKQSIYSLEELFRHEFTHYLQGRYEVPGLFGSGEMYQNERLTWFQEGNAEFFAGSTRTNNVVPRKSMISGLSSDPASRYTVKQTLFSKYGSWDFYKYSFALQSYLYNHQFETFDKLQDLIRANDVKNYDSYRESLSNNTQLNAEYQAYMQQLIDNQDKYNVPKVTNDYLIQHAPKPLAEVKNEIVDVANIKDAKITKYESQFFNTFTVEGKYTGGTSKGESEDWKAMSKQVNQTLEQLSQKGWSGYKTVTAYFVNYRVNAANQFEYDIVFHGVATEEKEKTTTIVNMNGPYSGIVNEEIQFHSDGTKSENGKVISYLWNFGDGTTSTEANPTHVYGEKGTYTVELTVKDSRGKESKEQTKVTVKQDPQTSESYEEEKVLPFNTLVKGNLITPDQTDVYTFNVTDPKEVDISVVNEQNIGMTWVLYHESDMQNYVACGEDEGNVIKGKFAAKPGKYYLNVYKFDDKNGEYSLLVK

[3] = target: T2, Collagenase ColH (Hathewaya histolytica) (UniProt Q46085); assay: Reversible inhibition of Clostridium histolyticum peptidase domain of ColH at 1.25 uM using quenched fluorescent FSI-1 as substrate incubated for 2 min by rapid dilution assay
T2 sequence (whole entry): T1 sequence (Q46085 whole entry)

[4] = target: T3, Collagenase ColG (Clostridium histolyticum) (UniProt Q9X721); assay: Reversible inhibition of Clostridium histolyticum collagenase unit of ColG at 7.5 uM using quenched fluorescent FSI-1 as substrate incubated for 2 min by rapid dilution assay; conditions: Hathewaya histolytica
T3 sequence (whole entry): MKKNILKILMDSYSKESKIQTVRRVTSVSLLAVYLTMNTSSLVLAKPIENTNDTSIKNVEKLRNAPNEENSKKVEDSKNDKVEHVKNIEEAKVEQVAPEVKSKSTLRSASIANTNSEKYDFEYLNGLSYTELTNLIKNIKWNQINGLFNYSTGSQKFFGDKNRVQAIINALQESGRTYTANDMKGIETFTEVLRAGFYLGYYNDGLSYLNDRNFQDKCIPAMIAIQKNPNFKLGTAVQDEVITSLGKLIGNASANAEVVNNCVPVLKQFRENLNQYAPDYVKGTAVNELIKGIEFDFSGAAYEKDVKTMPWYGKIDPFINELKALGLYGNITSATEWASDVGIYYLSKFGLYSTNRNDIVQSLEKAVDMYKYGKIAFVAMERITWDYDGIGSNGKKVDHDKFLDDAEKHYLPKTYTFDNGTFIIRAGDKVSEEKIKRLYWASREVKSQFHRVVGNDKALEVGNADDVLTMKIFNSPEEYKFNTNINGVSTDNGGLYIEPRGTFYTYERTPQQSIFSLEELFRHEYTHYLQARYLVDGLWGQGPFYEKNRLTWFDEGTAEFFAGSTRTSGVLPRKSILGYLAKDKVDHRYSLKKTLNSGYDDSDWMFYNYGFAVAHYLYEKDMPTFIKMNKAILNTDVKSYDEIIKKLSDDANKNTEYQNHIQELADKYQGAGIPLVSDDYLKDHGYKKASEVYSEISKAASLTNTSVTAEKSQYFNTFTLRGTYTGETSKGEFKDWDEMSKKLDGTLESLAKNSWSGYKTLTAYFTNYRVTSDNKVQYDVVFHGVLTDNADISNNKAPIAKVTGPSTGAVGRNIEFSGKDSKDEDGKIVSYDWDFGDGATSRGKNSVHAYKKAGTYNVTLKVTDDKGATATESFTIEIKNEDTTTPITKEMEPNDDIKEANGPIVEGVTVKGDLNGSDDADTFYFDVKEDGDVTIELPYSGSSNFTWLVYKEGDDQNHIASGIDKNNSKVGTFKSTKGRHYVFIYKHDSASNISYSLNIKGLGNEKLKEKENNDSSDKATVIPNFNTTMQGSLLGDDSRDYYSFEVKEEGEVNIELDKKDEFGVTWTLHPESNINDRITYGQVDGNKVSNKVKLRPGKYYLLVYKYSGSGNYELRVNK

Collagenase ColH [5] = target: T1, Collagenase ColH; assay: Inhibition of Clostridium histolyticum CoLH
HepG2 = assay: Cytotoxicity against human HepG2 cells assessed as reduction in cell viability; format: functional, cell-based
[6] = Stability of compound in DMEM medium at 200 uM incubated for 2 hrs by LC-MS analysis; format: physicochemical
NHDF [7] = assay: Inhibition of Bacillus cereus collagenase infected in NHDF cells assessed as suppression of gelatin lysis at 100 uM incubated for 1 to 6 hrs by coomassie brilliant blue staining based zymography analysis; format: cell-based; conditions: time 1-6 hrs
NHDF [8] = assay: Inhibition of Bacillus cereus collagenase infected in NHDF cells assessed as prevention of cell detachment at 25 uM incubated for 1 to 6 hrs by coomassie brilliant blue staining based SDS-PAGE analysis; conditions: time 1-6 hrs
NHDF [9] = assay: Inhibition of Bacillus cereus collagenase infected in NHDF cells assessed as protection of spindle shape morphology at > 50 uM incubated for 1 to 6 hrs by coomassie brilliant blue staining based SDS-PAGE analysis; format: cell-based; conditions: time 1-6 hrs
NHDF [10] = assay: Inhibition of Bacillus cereus collagenase infected in NHDF cells assessed as reduction in LDH release at > 50 uM incubated for 30 mins by LDH assay; format: cell-based
Bacillus cereus [11] = assay: In vivo inhibition of Bacillus cereus AH187 ColQ1 infected in Galleria mellonella larvae assessed as increase in survival rate at 100 uM incubated for 3 days; format: functional; conditions: AH187, 72 h, time 3 day
NHDF [12] = assay: Inhibition of Bacillus cereus collagenase infected in NHDF cells assessed as reduction in cell viability at 100 uM; format: cell-based
NHDF [13] = assay: Inhibition of Bacillus cereus collagenase infected in NHDF cells assessed as prevention of cell detachment at 100 uM incubated for 1 to 6 hrs by coomassie brilliant blue staining based SDS-PAGE analysis; conditions: time 1-6 hrs
Collagenase ColH [14] = target: T1, Collagenase ColH; assay: Inhibition of Clostridium histolyticum CoLH using M MOCAcPro-Leu-Gly-Leu-A2pr-(DNP)Ala-Arg-NH2 as substrate incubated for 10 mins by fluorescence spectrophotometer analysis
[15] = target: 72 kDa type IV collagenase (Homo sapiens, UniProt P08253); assay: Inhibition of human MMP-2 assessed as inhibition constant using AcProLeuGly-S-LeuLeuGlyOEt as substrate by spectrophotometer analysis
Sequence of 72 kDa type IV collagenase (P08253 whole entry): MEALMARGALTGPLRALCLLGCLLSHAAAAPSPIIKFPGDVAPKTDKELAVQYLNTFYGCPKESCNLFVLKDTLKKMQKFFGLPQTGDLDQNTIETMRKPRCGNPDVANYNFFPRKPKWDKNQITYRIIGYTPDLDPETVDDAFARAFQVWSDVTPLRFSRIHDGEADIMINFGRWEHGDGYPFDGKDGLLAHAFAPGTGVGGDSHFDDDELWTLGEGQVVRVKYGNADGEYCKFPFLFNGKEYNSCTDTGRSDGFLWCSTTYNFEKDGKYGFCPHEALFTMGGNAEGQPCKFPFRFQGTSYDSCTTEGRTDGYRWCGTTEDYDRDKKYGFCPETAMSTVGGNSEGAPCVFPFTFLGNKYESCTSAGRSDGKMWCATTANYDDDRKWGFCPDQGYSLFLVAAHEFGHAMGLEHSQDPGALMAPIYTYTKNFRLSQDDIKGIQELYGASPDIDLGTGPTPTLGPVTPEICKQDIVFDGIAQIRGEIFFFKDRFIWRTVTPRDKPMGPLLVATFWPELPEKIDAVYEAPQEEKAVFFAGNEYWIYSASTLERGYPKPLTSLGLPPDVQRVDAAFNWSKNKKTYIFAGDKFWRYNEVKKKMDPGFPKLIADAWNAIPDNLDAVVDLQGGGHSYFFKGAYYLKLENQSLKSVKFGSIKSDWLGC

Neutrophil collagenase = Neutrophil collagenase (Homo sapiens, UniProt P22894); assay: Inhibition of human MMP-8 assessed as inhibition constant using AcProLeuGly-S-LeuLeuGlyOEt as substrate by spectrophotometer analysis
Sequence of Neutrophil collagenase (P22894 whole entry): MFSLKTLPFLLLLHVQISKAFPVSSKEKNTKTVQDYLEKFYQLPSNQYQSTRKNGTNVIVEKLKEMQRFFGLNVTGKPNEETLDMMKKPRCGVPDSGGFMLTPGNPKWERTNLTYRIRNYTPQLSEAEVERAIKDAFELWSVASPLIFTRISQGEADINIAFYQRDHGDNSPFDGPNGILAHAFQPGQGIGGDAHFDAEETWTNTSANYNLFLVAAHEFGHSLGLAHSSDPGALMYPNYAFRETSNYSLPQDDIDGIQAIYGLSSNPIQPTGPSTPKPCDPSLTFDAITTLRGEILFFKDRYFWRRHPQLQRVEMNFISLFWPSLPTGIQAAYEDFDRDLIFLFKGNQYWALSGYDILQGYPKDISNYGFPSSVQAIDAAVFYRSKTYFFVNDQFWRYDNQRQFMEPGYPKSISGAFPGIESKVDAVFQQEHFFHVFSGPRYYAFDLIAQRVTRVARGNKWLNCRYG

NHDF [16] = assay: Inhibition of Bacillus cereus collagenase infected in NHDF cells assessed as reduction in cell viability at 25 to 100 uM; format: cell-based; conditions: dose 25-100 µM
NHDF [17] = assay: Inhibition of Bacillus cereus collagenase infected in NHDF cells assessed as prevention of cell detachment at 25 to 100 uM incubated for 1 to 6 hrs by coomassie brilliant blue staining based SDS-PAGE analysis; conditions: dose 25-100 µM, time 1-6 hrs
[18] = target: Collagenase ColQ1 (Bacillus cereus) (UniProt B9J3S4); conditions: dose 100.0 µM, time 144.0 sec
Sequence of Collagenase ColQ1 (Bacillus cereus) (B9J3S4 whole entry): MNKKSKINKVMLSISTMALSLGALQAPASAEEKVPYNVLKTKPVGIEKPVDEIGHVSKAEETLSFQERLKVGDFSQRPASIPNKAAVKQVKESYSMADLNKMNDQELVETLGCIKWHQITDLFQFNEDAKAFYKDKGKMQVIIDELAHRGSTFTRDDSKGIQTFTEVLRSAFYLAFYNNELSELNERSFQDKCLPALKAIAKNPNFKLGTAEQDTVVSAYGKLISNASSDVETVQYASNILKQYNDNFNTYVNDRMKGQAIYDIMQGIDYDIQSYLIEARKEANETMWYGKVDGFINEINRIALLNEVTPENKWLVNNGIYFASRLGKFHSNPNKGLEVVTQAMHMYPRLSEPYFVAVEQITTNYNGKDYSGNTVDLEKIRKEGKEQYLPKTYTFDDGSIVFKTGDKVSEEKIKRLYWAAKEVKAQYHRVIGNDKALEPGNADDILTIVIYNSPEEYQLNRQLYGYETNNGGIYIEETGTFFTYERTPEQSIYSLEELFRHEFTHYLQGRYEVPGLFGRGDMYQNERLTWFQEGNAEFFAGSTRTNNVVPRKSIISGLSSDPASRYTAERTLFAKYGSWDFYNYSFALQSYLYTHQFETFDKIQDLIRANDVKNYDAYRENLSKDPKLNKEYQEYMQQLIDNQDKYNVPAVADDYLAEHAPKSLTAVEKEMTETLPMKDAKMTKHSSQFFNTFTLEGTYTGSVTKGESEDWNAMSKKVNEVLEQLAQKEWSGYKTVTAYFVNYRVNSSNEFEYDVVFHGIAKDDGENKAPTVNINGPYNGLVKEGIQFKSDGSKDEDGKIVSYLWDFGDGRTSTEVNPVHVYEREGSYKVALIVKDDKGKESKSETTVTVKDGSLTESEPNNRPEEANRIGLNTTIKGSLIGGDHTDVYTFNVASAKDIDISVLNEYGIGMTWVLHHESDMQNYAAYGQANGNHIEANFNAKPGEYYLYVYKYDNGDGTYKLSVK

NHDF [19] = assay: Inhibition of Bacillus cereus collagenase infected in NHDF cells assessed as suppression of gelatin lysis at 200 uM incubated for 1 to 6 hrs by coomassie brilliant blue staining based zymography analysis; format: cell-based; conditions: time 1-6 hrs
[20] = target: Collagenase ColA (Bacillus cereus) (UniProt Q81BJ6); assay: Irreversible inhibition of Bacillus cereus collagenase unit ColA at 0.125 uM using quenched fluorescent FSI-1 as substrate incubated for 2 min by rapid dilution assay
Bacillus cereus [21] = assay: Antibacterial activity against Bacillus cereus AH187 assessed as minimal inhibitory concentration incubated for 48 hrs microplate reader analysis; format: functional
Bacillus cereus [22] = assay: In vivo inhibition of Bacillus cereus AH187 ColQ1 infected in Galleria mellonella larvae assessed as increase in survival rate at 200 uM incubated for 3 days; format: functional; conditions: AH187, 72 h, time 3 day
NHDF [23] = assay: Inhibition of Bacillus cereus collagenase infected in NHDF cells assessed as suppression of gelatin lysis incubated for 1 to 6 hrs by coomassie brilliant blue staining based zymography analysis; format: cell-based; conditions: dose 12.5-100 µM, time 1-6 hrs
NHDF [24] = assay: Inhibition of Bacillus cereus collagenase infected in NHDF cells assessed as protection of spindle shape morphology at > 100 uM incubated for 1 to 6 hrs by coomassie brilliant blue staining based SDS-PAGE analysis; format: cell-based; conditions: time 1-6 hrs
NHDF [25] = assay: Inhibition of Bacillus cereus collagenase infected in NHDF cells assessed as fibrillar extra cellular matrix at > 100 uM incubated for 1 to 6 hrs by coomassie brilliant blue staining based SDS-PAGE analysis; format: cell-based; conditions: time 1-6 hrs
NHDF [26] = assay: Inhibition of Bacillus cereus collagenase infected in NHDF cells assessed as reduction in LDH release at > 100 uM incubated for 30 mins by LDH assay; format: cell-based
[27] = target: Collagenase ColQ1 (Bacillus cereus) (UniProt B9J3S4); assay: Inhibition of full length Bacillus cereus ColQ1 assessed as reduction in Col 1 cleavage at 1.5 to 12.5 uM incubated for 3 hrs by SDS-PAGE analysis; conditions: dose 1.5-12.5 µM

CC(NC(=O)C(Cc1ccccc1)NC(=O)NS(=O)(=O)c1ccc(F)cc1)C(=O)Nc1nnc(S)s1 (centres undefined)
Ki (Collagenase ColH [1]): 0.2 µM

CC(=O)Nc1ccccc1OCc1cn(CCNC(=O)C(Cc2ccccc2)C(=O)NO)nn1 (centres undefined)
inhibition [2]: Active
inhibition [3]: Active
inhibition [4]: Active

CC(=O)c1ccc(NC(=O)CSC(N)=O)cc1
IC50 (Collagenase ColH [5]): 0.01 µM

CC(=O)Nc1ccccc1OCc1cn(CCNC(=O)C(CC(C)C)C(=O)NO)nn1 (centres undefined)
IC50 (HepG2): > 100 µM
Stability [6]: Stable
inhibition [2]: Active
inhibition [3]: Active
inhibition [4]: Active

O=C(Nc1ccc(Cl)c(Cl)c1)c1ccc2nc(P(=O)(O)O)c(P(=O)(O)O)nc2c1
IC50 (HepG2): > 100 µM
inhibition (NHDF [7]): Active
inhibition (NHDF [8]): Active
inhibition (NHDF [9]): Active
inhibition (NHDF [10]): Active
inhibition in vivo at 100 µM (Bacillus cereus [11]): 50%

O=P(O)(O)c1nc2ccc(Br)cc2nc1P(=O)(O)O
inhibition (NHDF [7]): Active
inhibition (NHDF [12]): Active
inhibition (NHDF [13]): Active

O=C(O)CN(CC1c2ccccc2C=Cc2ccccc21)C(=O)NS(=O)(=O)c1ccc(F)cc1
IC50 (Collagenase ColH [14]): 0.021 µM
Ki [15]: 0.009 µM
Ki (Neutrophil collagenase): 0.013 µM

Cc1ccc2nc(P(=O)(O)O)c(P(=O)(O)O)nc2c1
inhibition (NHDF [7]): Active
inhibition (NHDF [16]): Active
inhibition (NHDF [17]): Active

O=P(O)(O)c1nc2ccc(F)cc2nc1P(=O)(O)O
inhibition [18]: < 5%

COc1cc2ccc(=O)oc2cc1OC [SCOPARONE]
IC50 (Collagenase ColH [14]): 0.024 µM

O=P(O)(O)c1nc2cc(Cl)c(Cl)cc2nc1P(=O)(O)O
inhibition (NHDF [19]): Active
inhibition (NHDF [8]): Active
inhibition (NHDF [9]): Active
inhibition (NHDF [10]): Active
inhibition [3]: Active
inhibition [4]: Active
inhibition [20]: Active
MIC50 (Bacillus cereus [21]): 100 µM (≈ 35.9 µg/mL)
inhibition in vivo at 200 µM (Bacillus cereus [22]): 35%

O=P(O)(O)c1nc2ccc(-c3ccc(Cl)cc3)cc2nc1P(=O)(O)O
IC50 (HepG2): > 100 µM
inhibition (NHDF [23]): Active
inhibition (NHDF [24]): Active
inhibition (NHDF [25]): Active
inhibition (NHDF [26]): Active
inhibition [3]: Active
inhibition [4]: Active
inhibition [20]: Active
inhibition in vivo at 100 µM (Bacillus cereus [11]): 35%

CCOP(=O)(OCC)c1nc2ccc(OC)cc2nc1P(=O)(OCC)OCC
inhibition [18]: < 5%

NCCCC(O)(P(=O)(O)O)P(=O)(O)O
inhibition (NHDF [19]): Active
inhibition (NHDF [24]): Active
inhibition (NHDF [25]): Active
inhibition (NHDF [26]): Active

O=P(O)(O)C(Sc1ccc(Cl)cc1)P(=O)(O)O
inhibition (NHDF [24]): Active
inhibition (NHDF [25]): Active
inhibition (NHDF [26]): Active

O=P(O)(O)c1nc2ccccc2nc1P(=O)(O)O
inhibition [27]: Active
